The source of these data is patent US20260083691A1, “TREATING CANCERS WITH COMBINATIONS OF ANTI-CD20 ANTIBODY AND ACYLFULVENES” (Lantern Pharma Inc., priority 2023, published 2026).

Series [1] in a line: Tolerability (body weight, gross necropsy) in immune-proficient mice. The following applies: 4 mg/kg intravenously days 1, 8, 15. As for the experimental part:
(§1) In this study, vehicle, LP-284 (4 mg/kg), and cyclophosphamide (25 mg/kg, a clinically relevant dose) were administered intravenously on days 1, 8, and 15, with three mice per treatment group. Blood samples were collected on Day 16 and analyzed by flow cytometry to quantify the B-cell populations.

The subject of series [2] is OCLLY1-derived tumor xenografts. The experiment in a line: LP-284 alone and with rituximab in OCLLY1 DLBCL/HGBL-MYC/BCL2 tumor xenografts in mice. The conditions noted are these: for tumor growth inhibition (TGI): day 24, NOD.SCID mice. In kind it is in vivo. As for the experimental part:
HRD genomic scars from 107 B-NHL patients in the Pan-Cancer Analysis of Whole Genomes (PCAWG) study were tested. At least 10% of B-NHL patients were likely HRD+, with approximately 90% of these cases being diffuse large B-cell lymphoma (DLBCL). […] The calculated bliss synergy score between LP-284 and Rituximab on day 24 is 10, indicating synergy.
LP-284's efficacy in DLBCL/HGBL-MYC/BCL2 xenograft models was evaluated. LP-284, vehicle (saline), and Rituximab were administered intravenously in OCLLY1-derived tumor xenografts in mice. All vehicle-treated mice were sacrificed by day 24 due to excessive tumor size.
LP-284 was tested for anti-tumor efficacy as a monotherapy and in combination with rituximab in OCI-LY 1 DLBCL/HGBL-MYC/BCL2 cell line-derived tumor xenografts in mice. Methods: OCLLY1 cells were implanted subcutaneously in NOD.SCID mice. The following treatments were initiated when the tumors reached a volume of >100 mm3: vehicle (saline, administered intravenously on days 1, 8, and 15 in a 28-day cycle), 2 mg/kg or 4 mg/kg LP-284 (administered intravenously on days 1, 8, and 15 in a 28-day cycle), 10 mg/kg rituximab (administered intravenously on days 1 and 15 in a 28-day cycle), 2 mg/kg LP-284 and 10 mg/kg rituximab in combination. Four mice were used in each treatment group. Tumor Growth Inhibition (TGI) was calculated as % TGI=(1−((Tt/T0)/(Ct/C0)))/(1−(C0/Ct))*100 where Tt=mean tumor volume of treated at time t, TO=mean tumor volume of treated at time 0, Ct=mean tumor volume of control at time t, CO=mean tumor volume of control at time 0.

Another series deals with B-cells (CD19+ or CD20+). The experiment in a line: B-cell reduction in immune-proficient mice, blood analyzed by flow cytometry. In kind it is in vivo. The procedure:
as §1
A general note: In flow cytometry, cells or beads pass a laser one at a time.

In the case of `CC1=C(CN(O)C(N)=O)C2=C(C)C3(CC3)[C@](C)(O)C(=O)C2=C1` [LP-284, (+)-hydroxyureamethyl acylfulvene], in series [1], the body weight entry is reported as “normal body weight”, the gross necropsy findings entry is given as “no abnormal findings” and the tolerability result is “well-tolerated”. Further, in series [2] (2 mg/kg LP-284 alone intravenously days 1, 8, 15), the “tumor growth inhibition (TGI)” value is recorded as 57%. Moreover, in series [2] (4 mg/kg LP-284 intravenously days 1, 8, 15), the “tumor growth inhibition (TGI)” value turned out to be 99%. Also, in series [2] (by day 24, versus vehicle (saline), intravenous), the tumor volume result is “significantly reduced tumor volume”. Further, in the series with B-cells (CD19+ or CD20+) (iv, 4 mg/kg, 384 h), the “reduction of B-cells (CD19+ or CD20+)” value is reported as “approximately 30%”.

`O=P1(N(CCCl)CCCl)NCCCO1` (centres unmarked) [cyclophosphamide, reference compound]: in the series on B-cells (CD19+ or CD20+) (cyclophosphamide 25 mg/kg intravenously days 1, 8, 15, blood collected Day 16, immune-proficient mice), the “reduction of B-cells (CD19+ or CD20+)” value is listed as “comparable to the reduction achieved by cyclophosphamide”.
